Experimental data taken from patent US11414443B2, “Phospholipid derivatives and their use as medicaments” (USTAV MOLEKULARNI GENETIKY AV CR, V.V.I., priority 2017, dated 2022).
Where two headings read alike, the source gives them in different places.

Tests used:
[1] = tested on: LMH (chicken hepatocarcinoma); test: cells; assay type: cell-based; conditions: 16 hours of culture, ATP content
Experimental: (§1) The cytotoxic activity of the products was tested in tumor cell cultures C32 (human melanoma), TIB-75 (inducing murine hepatocarcinoma), LMH (chicken hepatocarcinoma).
B) LMH cells were cultured in D-MEM medium containing 10% fetal serum and penicillin+streptomycin at 37° C. in air/5% CO2 atmosphere saturated with water vapor. Each well contained 5×10^4 cells and 0.5 ml medium. […] After 16 hours of culture, cell state was recorded.
(§2) The cytotoxicity of the products was quantified by determining the ATP content in the cells and using neutral red intake, and the IC50ATP and IC50NR [μM] were determined.

[2] = tested on: C32 (human melanoma); test: Cytotoxicity in C32 tumor cell culture, ATP content; assay type: cell-based; conditions: C32 cells, 16 hours of culture
Experimental: (§3) After 16 hours of culture, cell state was recorded.
as §2

[3] = tested on: TIB-75 (inducing murine hepatocarcinoma); test: Cytotoxicity in TIB-75 tumor cell culture, ATP content; assay type: cell-based; conditions: TIB-75 cells, 16 hours of culture
Experimental: as §3, §2

[4] = tested on: tumor cell cultures C32, TIB-75, LMH; test: Cell state and growth in tumor cell cultures, controls and comparison products; conditions: 0-240 μM, 16 hours of culture
Experimental: As a control, the starting phospholipids were used at the same concentrations and conditions.
as §1
(§4) A) C32 cells were cultured in D-MEM medium containing 10% fetal serum and penicillin+streptomycin at 37° C. in air/5% CO2 atmosphere saturated with water vapor. Each well contained 5×10^4 cells and 0.5 ml medium. The tested products were added to the cells at concentrations of 0, 2.5, 5, 10, 20, 40, 80, 160 and 240 μM. After 16 hours of culture, cell state was recorded.
as §4, with “B) LMH” for “A) C32”, “phospholipids” for “products”
as §4, with “C) TIB-75” for “A) C32”, “phospholipids” for “products”

[5] = tested on: mammary gland 4T1 cancer cell line; test: Crystal violet cytotoxicity assay, E-DAPL/Dox combination; assay type: cell-based; conditions: for IC50: Mus musculus
Experimental: The potentiation of cytotoxic effect of E-DAPL/Dox combination was evaluated. The dose-effect relationship of individual drugs and E-DAPL/Dox mixture (ratio 202:1 was tested) was determined on mammary gland 4T1 cancer cell line by means of crystal violet assay (three measurements). The linearized Median-Effect Plot of dose response line provided both parameters (IC50; trend line m value) of Median-Effect Equation for individual and combination treatment [ref: Theoretical basis, experimental design, and computerized simulation of synergism and antagonism in drug combination studies; Ting-Chao Chou: Pharmacol Rev. 58(3), 2006, 621-81; Erratum in Pharmacol Rev. 2007; 59(1), 124]:
Potentiation of combination effect of E-DAPL/Dox/202:1 was expressed for the concentrations IC1 to IC60 by calculation of Combination index (CI) applying Combination Index Theorem for mutually nonexclusive drugs that obey higher order conditions [ref: Quantitative analysis of dose-effect relationships: the combined effects of multiple drugs or enzyme inhibitors; Ting-Chao Chou, Paul Talalay: Advances in Enzyme Regulation, Volume 22, 1984, Pages 27-55]: […]

## 1-acyl-lysophosphatidylcholine [PC/E-DAPL]
[1]
  IC50: 35 µM
[2]
  IC50: 50 µM
[3]
  IC50: 45 µM

## 1-acyl-lysophosphatidylethanolamine [PE/E-DAPL]
[1]
  IC50: 30 µM
[2]
  IC50: 35 µM
[3]
  IC50: 35 µM

## 1-stearoyl-phosphatidylcholine [sn-1 stearoyl PC]
[4]
  cytotoxic activity: effect on phenotype and rate of cell growth: did not affect the phenotype or reduce the rate of cell growth

## 2-acyl-lysophosphatidylcholine [2-acyl PC (15-20% 1-acyl PC), reference compound]
[2]
  IC50: 200 µM
[3]
  IC50: 210 µM

## COc1cccc2c1C(=O)c1c(O)c3c(c(O)c1C2=O)C[C@@](O)(C(=O)CO)C[C@@H]3O[C@H]1C[C@H](N)[C@H](O)[C@H](C)O1 [Dox, doxorubicin]
[5]; 4T1 cell line, Dox alone or within E-DAPL/Dox 202:1
  concentration of Dox at IC25: 0.2306 µM
[5]; 4T1 cell line, Dox alone or within E-DAPL/Dox 202:1, read-out: concentration of Dox at IC50 level
  IC50: 0.93 µM
[5]; 4T1 cells, crystal violet assay, calculated from the Median-Effect Plot, read-out: IC50
  IC50: 0.93 µM

## C[N+](C)(C)CCOP(=O)([O-])OCC(O)COC(=O)CCC1CCCC1 (stereo not drawn) [sn-1 cyclopentanepropionyl PC/E-DAPL]
[1]; Gallus gallus
  IC50: 130 µM
[2]; Homo sapiens
  IC50: 150 µM

## CCCCCC(=O)OCC(O)COP(=O)([O-])OCC[N+](C)(C)C (stereo not drawn) [sn-1 hexanoyl PC/E-DAPL]
[1]; Gallus gallus
  IC50: 135 µM
[2]; Homo sapiens
  IC50: 130 µM
[3]; Mus musculus
  IC50: 135 µM

## CCCCCCCCCCCCCCCCCC(=O)OCC(O)COP(=O)([O-])OCC[N+](C)(C)C (stereo not drawn) [sn-1 stearoyl PC/E-DAPL]
[1]; Gallus gallus
  IC50: 40 µM
[2]; Homo sapiens
  IC50: 45 µM
[3]; Mus musculus
  IC50: 45 µM

## CC(CC(=O)OCC(O)COP(=O)([O-])OCC[N+](C)(C)C)CC(C)(C)C (stereo not drawn) [sn-1 trimethylhexanoyl PC/E-DAPL]
[1]; Gallus gallus
  IC50: 140 µM
[2]; Homo sapiens
  IC50: 130 µM

## phosphatidylcholine [PC]
[4]
  cytotoxic activity: effect on phenotype and rate of cell growth: did not affect the phenotype or reduce the rate of cell growth

## phosphatidylethanolamine [PE]
[4]
  cytotoxic activity: effect on phenotype and rate of cell growth: did not affect the phenotype or reduce the rate of cell growth
